# Laboratory results as given in the supplement of paper PMC10307832.
# Experiments:
# Assay in all cases: relative viability (nuclei count vs DMSO), 5 days (fraction); higher = more cells survive
# [1] = test system: NCI-H2085
# Summary of the method: (§1)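 Values are medians from duplicate plates. Each reflects relative viability, defined as the nuclei count of treated wells over that of vehicle wells. Lung cancer cell lines in 1536-well plates were pin-tool dosed one day after seeding with one drug alone or with a fixed anchor-drug dose plus five library-drug doses (not always all listed) in √10 steps, then fixed, stained and imaged at 4× after 5 days.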
# [2] = test system: NCI-H647
# Summary of the method: as §1
# [3] = test system: NCI-H358
# Summary of the method: as §1
# [4] = test system: NCI-H2342
# Summary of the method: as §1
# [5] = test system: LXF-289
# Summary of the method: as §1
# [6] = test system: NCI-H1650
# Summary of the method: as §1
# [7] = test system: NCI-H322M
# Summary of the method: as §1
# [8] = test system: NCI-H727
# Summary of the method: as §1
# [9] = test system: NCI-H2023
# Summary of the method: as §1
# [10] = test system: SW 1573
# Summary of the method: as §1
# [11] = test system: NCI-H1915
# Summary of the method: as §1
# [12] = test system: NCI-H2347
# Summary of the method: as §1
# [13] = test system: NCI-H661
# Summary of the method: as §1
# [14] = test system: LCLC-97TM1
# Summary of the method: as §1
# [15] = test system: NCI-H2009
# Summary of the method: as §1
# [16] = test system: NCI-H1563
# Summary of the method: as §1
# [17] = test system: NCI-H2126
# Summary of the method: as §1
# [18] = test system: SK-LU-1
# Summary of the method: as §1
# [19] = test system: EMC-BAC-2
# Summary of the method: as §1
# [20] = test system: HOP-62
# Summary of the method: as §1
# [21] = test system: BEN
# Summary of the method: as §1
# [22] = test system: PC-14
# Summary of the method: as §1
# [23] = test system: NCI-H1993
# Summary of the method: as §1
# [24] = test system: H3255
# Summary of the method: as §1
smiles,measurement,setting,value
Clc1ccc(Nc2nnc(Cc3ccncc3)c3ccccc23)cc1 [Vatalanib] + CCNC(=O)c1noc(-c2cc(C(C)C)c(O)cc2O)c1-c1ccc(CN2CCOCC2)cc1 [Luminespib] (partner 0.01 µM),relative viability,[1]; first compound 0.04 µM,0.474
same,relative viability,[1]; first compound 0.1265 µM,0.529
same,relative viability,[1]; first compound 0.4 µM,0.464
same,relative viability,[1]; first compound 1.265 µM,0.609
same,relative viability,[1]; first compound 4 µM,0.469
same,relative viability,[2]; first compound 0.04 µM,0.128
same,relative viability,[2]; first compound 0.1265 µM,0.0977
same,relative viability,[2]; first compound 0.4 µM,0.169
same,relative viability,[2]; first compound 1.265 µM,0.187
same,relative viability,[2]; first compound 4 µM,0.138
same,relative viability,[3]; first compound 0.04 µM,0.498
same,relative viability,[3]; first compound 0.1265 µM,0.381
same,relative viability,[3]; first compound 0.4 µM,0.353
same,relative viability,[3]; first compound 1.265 µM,0.345
same,relative viability,[3]; first compound 4 µM,0.308
same,relative viability,[4]; first compound 0.04 µM,0.684
same,relative viability,[4]; first compound 0.1265 µM,0.684
same,relative viability,[4]; first compound 0.4 µM,0.822
same,relative viability,[4]; first compound 1.265 µM,0.869
same,relative viability,[4]; first compound 4 µM,0.658
same,relative viability,[5]; first compound 0.04 µM,0.703
same,relative viability,[5]; first compound 0.1265 µM,0.634
same,relative viability,[5]; first compound 0.4 µM,0.734
same,relative viability,[5]; first compound 1.265 µM,0.623
same,relative viability,[5]; first compound 4 µM,0.633
same,relative viability,[6]; first compound 0.04 µM,0.21
same,relative viability,[6]; first compound 0.1265 µM,0.193
same,relative viability,[6]; first compound 0.4 µM,0.206
same,relative viability,[6]; first compound 1.265 µM,0.203
same,relative viability,[6]; first compound 4 µM,0.208
same,relative viability,[7]; first compound 0.04 µM,0.849
same,relative viability,[7]; first compound 0.1265 µM,0.798
same,relative viability,[7]; first compound 0.4 µM,0.877
same,relative viability,[7]; first compound 1.265 µM,0.793
same,relative viability,[7]; first compound 4 µM,0.909
same,relative viability,[8]; first compound 0.04 µM,0.339
same,relative viability,[8]; first compound 0.1265 µM,0.289
same,relative viability,[8]; first compound 0.4 µM,0.329
same,relative viability,[8]; first compound 1.265 µM,0.635
same,relative viability,[8]; first compound 4 µM,0.392
same,relative viability,[9]; first compound 0.04 µM,0.58
same,relative viability,[9]; first compound 0.1265 µM,0.66
same,relative viability,[9]; first compound 0.4 µM,0.762
same,relative viability,[9]; first compound 1.265 µM,0.537
same,relative viability,[9]; first compound 4 µM,0.688
same,relative viability,[10]; first compound 0.04 µM,0.425
same,relative viability,[10]; first compound 0.1265 µM,0.321
same,relative viability,[10]; first compound 0.4 µM,0.302
same,relative viability,[10]; first compound 1.265 µM,0.437
same,relative viability,[10]; first compound 4 µM,0.264
same,relative viability,[11]; first compound 0.04 µM,0.847
same,relative viability,[11]; first compound 0.1265 µM,0.7
same,relative viability,[11]; first compound 0.4 µM,0.828
same,relative viability,[11]; first compound 1.265 µM,0.846
same,relative viability,[11]; first compound 4 µM,0.758
same,relative viability,[12]; first compound 0.04 µM,0.416
same,relative viability,[12]; first compound 0.1265 µM,0.425
same,relative viability,[12]; first compound 0.4 µM,0.254
same,relative viability,[12]; first compound 1.265 µM,0.549
same,relative viability,[12]; first compound 4 µM,0.509
same,relative viability,[13]; first compound 0.04 µM,0.887
same,relative viability,[13]; first compound 0.1265 µM,0.91
same,relative viability,[13]; first compound 0.4 µM,0.998
same,relative viability,[13]; first compound 1.265 µM,0.89
same,relative viability,[13]; first compound 4 µM,0.931
same,relative viability,[14]; first compound 0.04 µM,0.715
same,relative viability,[14]; first compound 0.1265 µM,0.808
same,relative viability,[14]; first compound 0.4 µM,0.741
same,relative viability,[14]; first compound 1.265 µM,0.725
same,relative viability,[14]; first compound 4 µM,0.951
same,relative viability,[15]; first compound 0.04 µM,1.11
same,relative viability,[15]; first compound 0.1265 µM,0.983
same,relative viability,[15]; first compound 0.4 µM,1.06
same,relative viability,[15]; first compound 1.265 µM,0.962
same,relative viability,[15]; first compound 4 µM,1.04
same,relative viability,[16]; first compound 0.04 µM,0.493
same,relative viability,[16]; first compound 0.1265 µM,0.539
same,relative viability,[16]; first compound 0.4 µM,0.519
same,relative viability,[16]; first compound 1.265 µM,0.495
same,relative viability,[16]; first compound 4 µM,0.56
same,relative viability,[17]; first compound 0.04 µM,0.925
same,relative viability,[17]; first compound 0.1265 µM,0.864
same,relative viability,[17]; first compound 0.4 µM,0.919
same,relative viability,[17]; first compound 1.265 µM,0.94
same,relative viability,[17]; first compound 4 µM,0.908
same,relative viability,[18]; first compound 0.04 µM,0.21
same,relative viability,[18]; first compound 0.1265 µM,0.197
same,relative viability,[18]; first compound 0.4 µM,0.241
same,relative viability,[18]; first compound 1.265 µM,0.218
same,relative viability,[18]; first compound 4 µM,0.232
same,relative viability,[19]; first compound 0.04 µM,1.16
same,relative viability,[19]; first compound 0.1265 µM,1.13
same,relative viability,[19]; first compound 0.4 µM,1.34
same,relative viability,[19]; first compound 1.265 µM,1.09
same,relative viability,[19]; first compound 4 µM,1.15
same,relative viability,[20]; first compound 0.04 µM,0.928
same,relative viability,[20]; first compound 0.1265 µM,0.925
same,relative viability,[20]; first compound 0.4 µM,0.895
same,relative viability,[20]; first compound 1.265 µM,0.883
same,relative viability,[20]; first compound 4 µM,0.959
same,relative viability,[21]; first compound 0.04 µM,0.218
same,relative viability,[21]; first compound 0.1265 µM,0.265
same,relative viability,[21]; first compound 0.4 µM,0.514
same,relative viability,[21]; first compound 1.265 µM,0.399
same,relative viability,[21]; first compound 4 µM,0.404
same,relative viability,[22]; first compound 0.04 µM,0.155
same,relative viability,[22]; first compound 0.1265 µM,0.19
same,relative viability,[22]; first compound 1.265 µM,0.158
same,relative viability,[22]; first compound 4 µM,0.149
same,relative viability,[23]; first compound 0.04 µM,0.955
same,relative viability,[23]; first compound 0.1265 µM,0.958
same,relative viability,[23]; first compound 0.4 µM,0.865
same,relative viability,[23]; first compound 1.265 µM,0.71
same,relative viability,[23]; first compound 4 µM,0.82
same,relative viability,[24]; first compound 0.04 µM,0.881
same,relative viability,[24]; first compound 0.1265 µM,0.91
same,relative viability,[24]; first compound 0.4 µM,0.82
same,relative viability,[24]; first compound 1.265 µM,0.743
same,relative viability,[24]; first compound 4 µM,0.838
